# Source: patent publication US20250179017A1 (GUANGDONG NEWOPP BIOPHARMACEUTICALS CO., LTD., priority 2022, published 2025)
# Biological target: T1, human EP2 (PTGER2) (Homo sapiens, UniProt P43116)
# T1 construct: Cayman Chemical (Human EP2 Reporter Assay Kit)
# Assay: EP2 antagonist assay (HEK-293 CNG membrane potential cAMP assay / 293T SEAP reporter assay, PGE2-stimulated)
# Format: cell-based
# Conditions: EP2 antagonist activity; concentration for 50% inhibition of signal compared to DMSO
# Source text: 1. The HEK-293 CNG (Cyclic Nucleotide Gated) cell line expressing a modified CNG channel that leads to cell membrane depolarization in response to elevated intracellular cAMP levels, which can be measured using a fluorescent membrane potential dye, was engineered to express human EP2 (PTGER2) or EP4 (EP4R). The resulting cell line ACTOne™ PTGER2 or ACTOne™ EP4R as well as the fluorescent membrane potential dye were purchased from eEnzyme (Gaithersburg, MD, US) and used in this assay. Briefly, cells were plated at 1.2×10^4 cells/well in 20 μL DMEM supplemented with 2% Fetal Bovine Serum (FBS, VWR International), 1x Penicillin/Streptomycin (GenClone), 0.2 μg/mL puromycin (InvivoGen) and 50 μg/mL G418 (InvivoGen) on a 384 well plate (Greiner). The next day, cells were dye-loaded with 20 μL/well of 1x Dye-loading solution (eENZYME) following the manufacturer's instruction. After 2 hours of incubation at room temperature (RT) in the dark, a pre-read was made to obtain the background signals using CLARIOstar plate reader (BMG LABTECH, Germany) with the following filter settings: excitation=530/20 nm, emission=590/20 nm. Next, a serial dilution of compound (plus a DMSO control) were added to the plate (5 μL/well) and the reaction was incubated at RT for 15 min before adding 5 μL of PGE2 to every well for a final concentration of 5 nM. All wells were duplicated. The plate was then further incubated at RT for 30 min prior to a final read with the same machine settings. Background-subtracted signals were used to calculate IC50 values.
# 2. Human EP2 and EP4 Reporter Assay Kits were purchased from Cayman Chemical (Ann Arbor, MI, USA). The assay was performed following the provided User Manual. Briefly, a reverse transfection was performed by seeding 6.0×10^4 of 293T cells (ATCC) to each well of the provided Strip Plate coated with a proprietary transfection complex containing DNA constructs for expressing human EP2 or EP4 and a cAMP response element regulated secreted alkaline phosphatase (SEAP) reporter, in 200 μL DMEM supplemented with 2% FBS and incubated for 20-24 hours at 37° C. with 5% CO2. After the incubation, the culture medium was carefully removed, and the cells were replenished with 150 μL pre-warmed serum-free medium. PGE2 and test compounds were prepared together at 4x the desired final concentration, and 50 μL was added to each assigned well with the final concentration of 13 nM and 2 nM PGE2 for EP2 and EP4 assay, respectively. After 6-8 hours of incubation, 10 μL media from each well was transferred to corresponding well of a new plate, which was then sealed and incubated at 65° C. for 30 min. The plate was then cooled down to RT and 50 μL SEAP substrate was added to each well. Luminescence signal was measured using a CLARIOstar plate reader.
# The IC50 value was determined as the concentration for 50% inhibition of signal compared to DMSO (A: IC50 […]; B: IC50 between 100 nM and 1,000 nM; C: IC50≥1,000 nM).
# T1 sequence (P43116 whole entry): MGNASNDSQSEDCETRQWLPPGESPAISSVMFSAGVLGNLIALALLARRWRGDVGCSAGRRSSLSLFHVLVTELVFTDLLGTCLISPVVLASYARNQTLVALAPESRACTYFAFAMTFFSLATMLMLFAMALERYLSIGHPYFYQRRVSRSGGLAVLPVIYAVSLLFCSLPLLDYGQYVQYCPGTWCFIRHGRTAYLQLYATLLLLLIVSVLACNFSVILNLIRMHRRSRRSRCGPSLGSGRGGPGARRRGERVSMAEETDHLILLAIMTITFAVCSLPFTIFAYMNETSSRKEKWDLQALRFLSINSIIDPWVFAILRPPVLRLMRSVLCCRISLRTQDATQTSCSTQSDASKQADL
row,Compound,IC50
1,"O=C(O)c1ccc(CNC(=O)c2cc(-c3cc(F)cc(C(F)(F)F)c3)cc3ccn(Cc4ccc(C(F)(F)F)cc4)c23)cc1 [Example 11, 4-((5-(3-fluoro-5-(trifluoromethyl)phenyl)-1-(4-(trifluoromethyl)benzyl)-1H-indole-7-carboxamido)methyl)benzoic acid]",< 0.1 µM
2,"C[C@@H](NC(=O)c1cc(-c2cccc(C#N)c2)cc2ccn(Cc3ccc(C(F)(F)F)cc3)c12)c1ccc(C(=O)O)cc1 [Example 12, (R)-4-(1-(5-(3-cyanophenyl)-1-(4-(trifluoromethyl)benzyl)-1H-indole-7-carboxamido)ethyl) benzoic acid]",≥ 1 µM
3,"C[C@@H](NC(=O)c1cc(-c2ccc(F)c(F)c2)cc2ccn(Cc3ccc(C(F)(F)F)cc3)c12)c1ccc(C(=O)O)cc1 [Example 13, (R)-4-(1-(5-(3,4-difluorophenyl)-1-(4-(trifluoromethyl)benzyl)-1H-indole-7-carboxamido)ethyl)benzoic acid]",≥ 1 µM
4,"C[C@@H](NC(=O)c1cc(-c2cc(F)cc(F)c2)cc2ccn(Cc3ccc(C(F)(F)F)cc3)c12)c1ccc(C(=O)O)cc1 [Example 14, (R)-4-(1-(5-(3,5-difluorophenyl)-1-(4-(trifluoromethyl)benzyl)-1H-indole-7-carboxamido)ethyl) benzoic acid]",≥ 1 µM
5,"C[C@@H](NC(=O)c1cc(-c2cccc(C(F)(F)F)c2)cc2ccn(Cc3ccc(C(F)(F)F)cc3)c12)c1ccc(C(=O)O)cc1 [Example 15, (R)-4-(1-(1-(4-(trifluoromethyl)benzyl)-5-(3-(trifluoromethyl)phenyl)-1H-indole-7-carboxamido)ethyl) benzoic acid]",≥ 1 µM
6,"C[C@@H](NC(=O)c1cc(-c2cc(F)cc(C(F)(F)F)c2)cc2ccn(Cc3ccc(C(F)(F)F)cc3)c12)c1ccc(C(=O)O)cc1 [Example 16, (R)-4-(1-(5-(3-fluoro-5-(trifluoromethyl)phenyl)-1-(4-(trifluoromethyl)benzyl)-1H-indole-7-carboxamido)ethyl)benzoic acid]",≥ 1 µM
7,"N#Cc1cccc(-c2cc(C(=O)NC3(c4ccc(C(=O)O)cc4)CC3)c3c(ccn3Cc3ccc(C(F)(F)F)cc3)c2)c1 [Example 17, 4-(1-(5-(3-cyanophenyl)-1-(4-(trifluoromethyl)benzyl)-1H-indole-7-carboxamido)cyclopropyl)benzoic acid]",< 0.1 µM
8,"O=C(O)c1ccc(C2(NC(=O)c3cc(-c4ccc(F)c(F)c4)cc4ccn(Cc5ccc(C(F)(F)F)cc5)c34)CC2)cc1 [Example 18, 4-(1-(5-(3,4-difluorophenyl)-1-(4-(trifluoromethyl)benzyl)-1H-indole-7-carboxamido)cyclopropyl)benzoic acid]",0.1 to 1 µM
9,"O=C(O)c1ccc(C2(NC(=O)c3cc(-c4cc(F)cc(F)c4)cc4ccn(Cc5ccc(C(F)(F)F)cc5)c34)CC2)cc1 [Example 19, 4-(1-(5-(3,5-difluorophenyl)-1-(4-(trifluoromethyl)benzyl)-1H-indole-7-carboxamido)cyclopropyl)benzoic acid]",≥ 1 µM
10,"O=C(O)c1ccc(C2(NC(=O)c3cc(-c4cccc(C(F)(F)F)c4)cc4ccn(Cc5ccc(C(F)(F)F)cc5)c34)CC2)cc1 [Example 20, 4-(1-(1-(4-(trifluoromethyl)benzyl)-5-(3-(trifluoromethyl)phenyl)-1H-indole-7-carboxamido)cyclopropyl)benzoic acid]",≥ 1 µM
11,"O=C(O)c1ccc(C2(NC(=O)c3cc(-c4cc(F)cc(C(F)(F)F)c4)cc4ccn(Cc5ccc(C(F)(F)F)cc5)c34)CC2)cc1 [Example 21, 4-(1-(5-(3-fluoro-5-(trifluoromethyl)phenyl)-1-(4-(trifluoromethyl)benzyl)-1H-indole-7-carboxamido)cyclopropyl)benzoic acid]",0.1 to 1 µM
12,"N#Cc1cccc(-c2ccc(C(=O)NCc3ccc(C(=O)O)cc3)c3c2ccn3Cc2ccc(C(F)(F)F)cc2)c1 [Example 22, 4-((4-(3-cyanophenyl)-1-(4-(trifluoromethyl)benzyl)-1H-indole-7-carboxamido)methyl)benzoic acid]",0.1 to 1 µM
13,"O=C(O)c1ccc(CNC(=O)c2ccc(-c3ccc(F)c(F)c3)c3ccn(Cc4ccc(C(F)(F)F)cc4)c23)cc1 [Example 23, 4-((4-(3,4-difluorophenyl)-1-(4-(trifluoromethyl)benzyl)-1H-indole-7-carboxamido)methyl) benzoic acid]",≥ 1 µM
14,"O=C(O)c1ccc(CNC(=O)c2ccc(-c3cccc(C(F)(F)F)c3)c3ccn(Cc4ccc(C(F)(F)F)cc4)c23)cc1 [Example 24, 4-((1-(4-(trifluoromethyl)benzyl)-4-(3-(trifluoromethyl)phenyl)-1H-indole-7-carboxamido)-methyl)benzoic acid]",≥ 1 µM
15,"O=C(O)c1ccc(CNC(=O)c2ccc(-c3ccc(F)cc3)c3ccn(Cc4ccc(C(F)(F)F)cc4)c23)cc1 [Example 25, 4-((4-(4-fluorophenyl)-1-(4-(trifluoromethyl)benzyl)-1H-indole-7-carboxamido)methyl)benzoic acid]",≥ 1 µM
16,"O=C(O)c1ccc(CNC(=O)c2ccc(-c3ccccc3)c3ccn(Cc4ccc(C(F)(F)F)cc4)c23)cc1 [Example 26, 4-((4-phenyl-1-(4-(trifluoromethyl)benzyl)-1H-indole-7-carboxamido)methyl)benzoic acid]",0.1 to 1 µM
17,"O=C(O)c1ccc(CNC(=O)c2ccc(-c3cc(F)cc(F)c3)c3ccn(Cc4ccc(C(F)(F)F)cc4)c23)cc1 [Example 27, 4-((4-(3,5-difluorophenyl)-1-(4-(trifluoromethyl)benzyl)-1H-indole-7-carboxamido)methyl) benzoic acid]",≥ 1 µM
18,"O=C(O)c1ccc(CNC(=O)c2ccc(-c3cc(F)cc(C(F)(F)F)c3)c3ccn(Cc4ccc(C(F)(F)F)cc4)c23)cc1 [Example 28, 4-((4-(3-fluoro-5-(trifluoromethyl)phenyl)-1-(4-(trifluoromethyl)benzyl)-1H-indole-7-carboxamido)methyl)benzoic acid]",≥ 1 µM
19,"C[C@@H](NC(=O)c1ccc(-c2ccccc2)c2ccn(Cc3ccc(C(F)(F)F)cc3)c12)c1ccc(C(=O)O)cc1 [Example 29, (R)-4-(1-(4-phenyl-1-(4-(trifluoromethyl)benzyl)-1H-indole-7-carboxamido)ethyl) benzoic acid]",≥ 1 µM
20,"C[C@@H](NC(=O)c1ccc(-c2cccc(C#N)c2)c2ccn(Cc3ccc(C(F)(F)F)cc3)c12)c1ccc(C(=O)O)cc1 [Example 30, (R)-4-(1-(4-(3-cyanophenyl)-1-(4-(trifluoromethyl)benzyl)-1H-indole-7-carboxamido)ethyl) benzoic acid]",≥ 1 µM
21,"C[C@@H](NC(=O)c1ccc(-c2ccc(F)c(F)c2)c2ccn(Cc3ccc(C(F)(F)F)cc3)c12)c1ccc(C(=O)O)cc1 [Example 31, (R)-4-(1-(4-(3,4-difluorophenyl)-1-(4-(trifluoromethyl)benzyl)-1H-indole-7-carboxamido)ethyl)benzoic acid]",≥ 1 µM
22,"C[C@@H](NC(=O)c1ccc(-c2cc(F)cc(F)c2)c2ccn(Cc3ccc(C(F)(F)F)cc3)c12)c1ccc(C(=O)O)cc1 [Example 32, (R)-4-(1-(4-(3,5-difluorophenyl)-1-(4-(trifluoromethyl)benzyl)-1H-indole-7-carboxamido)ethyl) benzoic acid]",≥ 1 µM
23,"C[C@@H](NC(=O)c1ccc(-c2cccc(C(F)(F)F)c2)c2ccn(Cc3ccc(C(F)(F)F)cc3)c12)c1ccc(C(=O)O)cc1 [Example 33, (R)-4-(1-(1-(4-(trifluoromethyl)benzyl)-4-(3-(trifluoromethyl)phenyl)-1H-indole-7-carboxamido)ethyl) benzoic acid]",≥ 1 µM
24,"C[C@@H](NC(=O)c1ccc(-c2cc(F)cc(C(F)(F)F)c2)c2ccn(Cc3ccc(C(F)(F)F)cc3)c12)c1ccc(C(=O)O)cc1 [Example 34, (R)-4-(1-(4-(3-fluoro-5-(trifluoromethyl)phenyl)-1-(4-(trifluoromethyl)benzyl)-1H-indole-7-carboxamido)ethyl)benzoic acid]",≥ 1 µM
